ChEMBL document CHEMBL4811216, “Chemotherapy for human schistosomiasis: how far have we come? What's new? Where do we go from here?” (RSC Med Chem, 2020)

What was measured:
Schistosoma mansoni [1] = test: Antischistosomal activity against Schistosoma mansoni incubated for 72 hrs by microscopic method; type: functional, organism-based
Schistosoma haematobium = test: Antischistosomal activity against Schistosoma haematobium at 10 uM measured after 72 hrs relative to control; type: functional
Schistosoma mansoni [2] = test: microbe, parasite or virus in culture; details: 72 h
Description: Antischistosomal activity against Schistosoma mansoni incubated for 72 hrs by inverted microscopic method

Schistosoma mansoni [3] = test: microbe, parasite or virus in culture; details: Liberian, 72 h
Description: Antischistosomal activity against Schistosoma mansoni Liberian NTS incubated for 72 hrs by microscopic method

[4] = target: HDAC1 (histone deacetylase 1) (Homo sapiens, UniProt Q13547); test: Inhibition of human HDAC1 using Z-Lys(Ac)-AMC as substrate at 1 uM by fluorimetric method relative to control; details: HDAC1 enzyme, probe Z-Lys(Ac)-AMC
Chain of HDAC1 (histone deacetylase 1) (Q13547 whole entry): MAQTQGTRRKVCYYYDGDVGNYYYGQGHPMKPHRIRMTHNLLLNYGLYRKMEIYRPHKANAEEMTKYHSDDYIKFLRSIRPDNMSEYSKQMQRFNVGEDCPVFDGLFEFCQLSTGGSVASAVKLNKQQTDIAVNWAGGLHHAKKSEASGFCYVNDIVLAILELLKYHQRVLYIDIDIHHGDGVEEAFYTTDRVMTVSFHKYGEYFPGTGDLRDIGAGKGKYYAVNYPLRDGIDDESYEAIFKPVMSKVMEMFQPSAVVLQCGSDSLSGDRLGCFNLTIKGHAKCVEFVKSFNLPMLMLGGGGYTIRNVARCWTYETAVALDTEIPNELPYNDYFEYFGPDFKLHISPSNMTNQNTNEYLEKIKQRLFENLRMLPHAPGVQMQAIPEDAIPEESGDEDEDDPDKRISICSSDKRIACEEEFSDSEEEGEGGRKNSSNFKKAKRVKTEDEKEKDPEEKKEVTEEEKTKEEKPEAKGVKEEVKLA

Schistosoma mansoni [5] = test: Antischistosomal activity against adult Schistosoma mansoni assessed as worm mortality at 10 uM measured up to 72 hrs by microscopic method relative to control; type: functional; details: time hrs <=72
Schistosoma mansoni [6] = test: Antischistosomal activity against adult Schistosoma mansoni measured up to 72 hrs by microscopic method; type: functional, organism-based
Schistosoma mansoni [7] = test: Antischistosomal activity against Schistosoma mansoni NTS assessed as worm mortality at 10 uM measured up to 72 hrs by microscopic method relative to control; type: functional; details: time hrs <=72

SMILES	IC50 (Schistosoma mansoni [1])	IC50 (Schistosoma mansoni [6])	mortality at 10 µM (Schistosoma mansoni [7])	also measured
O=C(Nc1ccc(C(F)(F)F)c(C(F)(F)F)c1)c1cc(Cl)ccc1O	–	–	–	Activity (Schistosoma haematobium): 100%; IC50 (Schistosoma mansoni [2]): 2100 nM; IC50 (Schistosoma mansoni [3]): 200 nM
O=C(NO)c1cccc(C(=O)NOCc2cccc3ccccc23)c1	–	–	–	inhibition at 1 µM [4]: < 10%
COc1cccc(-n2nnnc2S(C)(=O)=O)c1	–	–	–	Activity (Schistosoma haematobium): 87.7%; IC50 (Schistosoma mansoni [2]): 6800 nM; IC50 (Schistosoma mansoni [3]): 900 nM
N#Cc1c(C(F)(F)F)cc(Nc2ccccc2)n2c1nc1ccccc12	–	200 nM	> 70%	mortality at 10 µM (Schistosoma mansoni [5]): > 60%
N#Cc1ccc(Nc2cc(C(F)(F)F)c(C#N)c3nc4ccccc4n23)cc1	–	200 nM	> 70%	mortality at 10 µM (Schistosoma mansoni [5]): > 60%
CCNCCNc1cc(-c2ccc(C(F)(F)F)cc2)c(C#N)c2nc3c(Cl)cc(Cl)cc3n12	–	200 nM	> 70%	–
CNc1nnc(Sc2cnn(-c3ccccc3)c(=O)c2Cl)s1	–	–	–	Activity (Schistosoma haematobium): 100%; IC50 (Schistosoma mansoni [2]): 2500 nM; IC50 (Schistosoma mansoni [3]): 400 nM
O=C(NO)c1cccc(C(=O)NOCc2cccc(Cl)c2Cl)c1	–	–	–	inhibition at 1 µM [4]: < 10%
CCNCCNc1cc(-c2ccc(C(F)(F)F)cc2)c(C#N)c2nc3cccc(Br)c3n12	–	200 nM	> 70%	–
Cc1csc(Nc2cc(C(F)(F)F)c(C#N)c3nc4ccccc4n23)n1	–	200 nM	> 70%	mortality at 10 µM (Schistosoma mansoni [5]): > 60%
CCNCCNc1cc(-c2ccc(C(F)(F)F)cc2)c(C#N)c2nc3cccc(Cl)c3n12	–	200 nM	> 70%	–
CCNCCNc1cc(C2CCCCC2)c(C#N)c2nc3ccccc3n12	–	200 nM	> 70%	–
Nc1nc(NCC2CCC(CNS(=O)(=O)c3ccc4ccccc4c3)CC2)nc2ccccc12 (stereo unspecified)	–	–	–	IC50 (Schistosoma mansoni [2]): 2000 nM; IC50 (Schistosoma mansoni [3]): 600 nM
O=C(NO)c1cccc(C(=O)NOCCCc2ccccc2)c1	–	–	–	inhibition at 1 µM [4]: < 10%
COc1ccc(Nc2cc(C(F)(F)F)c(C#N)c3nc4ccccc4n23)cc1	–	200 nM	> 70%	mortality at 10 µM (Schistosoma mansoni [5]): > 60%
CC(C)=CCC/C(C)=C\CNCCNC1C2CC3CC(C2)CC1C3 (stereo unspecified)	–	–	–	Activity (Schistosoma haematobium): 82.5%; IC50 (Schistosoma mansoni [2]): 4900 nM; IC50 (Schistosoma mansoni [3]): 2900 nM
N#Cc1c(C(F)(F)F)cc(Nc2ccc(CN3CCOCC3)cc2)n2c1nc1ccccc12	–	200 nM	> 70%	mortality at 10 µM (Schistosoma mansoni [5]): > 60%
CCNCCNc1cc(-c2cccc(C(F)(F)F)c2)c(C#N)c2nc3ccccc3n12	–	200 nM	> 70%	–
CN(C)CCNc1nc2ccc(Nc3cc(C(F)(F)F)c(C#N)c4nc5ccccc5n34)cc2o1	–	200 nM	> 70%	mortality at 10 µM (Schistosoma mansoni [5]): > 60%
Cc1cc(C)cc(CONC(=O)c2cccc(C(=O)NO)c2)c1	–	–	–	inhibition at 1 µM [4]: < 10%

SMILES	IC50 (Schistosoma mansoni [1])	IC50 (Schistosoma mansoni [6])	mortality at 10 µM (Schistosoma mansoni [7])	also measured
Cn1c(=O)c2c(S(C)(=O)=O)snc2n(C)c1=O	–	–	–	Activity (Schistosoma haematobium): 75.4%; IC50 (Schistosoma mansoni [2]): 4700 nM; IC50 (Schistosoma mansoni [3]): 800 nM
O=C(NO)c1cccc(C(=O)NOCc2ccccc2)c1	–	–	–	inhibition at 1 µM [4]: < 10%
CNC1CCN(c2cc(-c3ccc(C(F)(F)F)cc3)c(C#N)c3nc4ccccc4n23)C1 (stereo unspecified)	–	200 nM	> 70%	–
CCN(CC)CCCC(C)Nc1cc(-c2ccc(C(F)(F)F)cc2)c(C#N)c2nc3ccccc3n12 (stereo unspecified)	–	200 nM	> 70%	–
N#Cc1c(C(F)(F)F)cc(Nc2ccc3nc(NCCN4CCCC4)oc3c2)n2c1nc1ccccc12	–	200 nM	> 70%	mortality at 10 µM (Schistosoma mansoni [5]): > 60%
COc1ncnc(Nc2cc(C(F)(F)F)c(C#N)c3nc4ccccc4n23)c1OC	200 nM	200 nM	> 70%	mortality at 10 µM (Schistosoma mansoni [5]): > 60%
CCNCCNc1cc(-c2ccc(C(F)(F)F)cc2)c(C#N)c2nc3ncccc3n12	–	200 nM	> 70%	–
N#Cc1c(-c2ccc(C(F)(F)F)cc2)cc(NC2CCC(N)CC2)n2c1nc1cc(Cl)cc(Cl)c12 (stereo unspecified)	–	200 nM	> 70%	–
c1ccc(Oc2ccc(-c3cncc(-c4ccc5[nH]ccc5c4)n3)cc2)cc1	–	–	–	Activity (Schistosoma haematobium): 75.4%; IC50 (Schistosoma mansoni [2]): 3400 nM; IC50 (Schistosoma mansoni [3]): 2200 nM
CCNCCNc1cc(-c2ccc(C(F)(F)F)cc2)c(C#N)c2nc3ccccc3n12	–	200 nM	> 70%	–
CCNCCNc1cc(-c2ccc(C(F)(F)F)cc2)c(C#N)c2nc3cc(Cl)ccc3n12	–	200 nM	> 70%	–
CCNCCNc1cc(-c2ccc(C(F)(F)F)cc2)c(C#N)c2nc3cc(Cl)c(Cl)cc3n12	–	200 nM	> 70%	–
CCNCCNc1cc(C2CCCC2)c(C#N)c2nc3ccccc3n12	–	200 nM	> 70%	–
N#Cc1c(C(F)(F)F)cc(Nc2cnccn2)n2c1nc1ccccc12	200 nM	200 nM	> 70%	mortality at 10 µM (Schistosoma mansoni [5]): > 60%
CN1CCC(Oc2cc(-c3ccc(C(F)(F)F)cc3)c(C#N)c3nc4ccccc4n23)CC1	–	200 nM	> 70%	–
CCNCCNc1cc(-c2ccc(Cl)c(Cl)c2)c(C#N)c2nc3ccccc3n12	–	200 nM	> 70%	–
CS(=O)(=O)c1ccc(Nc2cc(C(F)(F)F)c(C#N)c3nc4ccccc4n23)cc1	–	200 nM	> 70%	mortality at 10 µM (Schistosoma mansoni [5]): > 60%
N#Cc1c(C(F)(F)F)cc(Nc2ccnc(F)c2)n2c1nc1ccccc12	–	200 nM	> 70%	mortality at 10 µM (Schistosoma mansoni [5]): > 60%
CN1CCC(Nc2cc(-c3ccc(C(F)(F)F)cc3)c(C#N)c3nc4cc(Cl)c(Cl)cc4n23)CC1	–	200 nM	> 70%	–
N#Cc1c(-c2ccc(C(F)(F)F)cc2)cc(NCCn2ccnc2)n2c1nc1ccccc12	–	200 nM	> 70%	–

Further lines, with some results ahead:

IC50 (Schistosoma mansoni [1])	SMILES	IC50 (Schistosoma mansoni [6])	mortality at 10 µM (Schistosoma mansoni [7])	also measured
200 nM	N#Cc1c(C(F)(F)F)cc(Nc2ccc(OC(F)(F)F)cc2)n2c1nc1ccccc12	–	–	–
200 nM	N#Cc1c(C(F)(F)F)cc(NCc2ccco2)n2c1nc1cc(Cl)c(Cl)cc12	–	–	–
200 nM	Cc1ccc(CNc2cc(C(F)(F)F)c(C#N)c3nc4cc(Cl)c(Cl)cc4n23)cc1	–	–	–
200 nM	N#Cc1ccc(S(=O)(=O)Nc2cc(C(F)(F)F)cc3nc4cc(Cl)c(Cl)cc4n23)cc1	–	–	–
1600 nM	Clc1ccc2c(N3CCNCCN(c4ccnc5cc(Cl)ccc45)CCNCC3)ccnc2c1	–	–	–
200 nM	N#Cc1c(C(F)(F)F)cc(Nc2cccc(OC(F)(F)F)c2)n2c1nc1ccccc12	–	–	–
200 nM	N#Cc1c(C(F)(F)F)cc(NCc2cccc(F)c2)n2c1nc1cc(Cl)c(Cl)cc12	–	–	–
200 nM	N#Cc1c(C(F)(F)F)cc(NCc2ccc(F)cc2)n2c1nc1cc(Cl)cc(Cl)c12	–	–	–
200 nM	N#Cc1c(C(F)(F)F)cc(NCc2ccccn2)n2c1nc1cc(Cl)c(Cl)cc12	–	–	–
200 nM	N#Cc1c(C(F)(F)F)cc(NCc2ccc(OC(F)(F)F)cc2)n2c1nc1cc(Cl)c(Cl)cc12	–	–	–
200 nM	O=S(=O)(Nc1cc(C(F)(F)F)cc2nc3cc(Cl)c(Cl)cc3n12)c1ccc(OC(F)(F)F)cc1	–	–	–
200 nM	N#Cc1c(C(F)(F)F)cc(NCc2cccs2)n2c1nc1cc(Cl)c(Cl)cc12	–	–	–
200 nM	CC(Nc1cc(C(F)(F)F)cc2nc3cc(Cl)c(Cl)cc3n12)c1ccc(S(C)(=O)=O)cc1 (stereo unspecified)	–	–	–
200 nM	FC(F)(F)Oc1ccc(Nc2cc(C(F)(F)F)cc3nc4ccccc4n23)cc1	–	–	–
200 nM	N#Cc1c(C(F)(F)F)cc(NCc2ccc(F)cc2)n2c1nc1cc(Cl)c(Cl)cc12	–	–	–
200 nM	N#Cc1c(C(F)(F)F)cc(Nc2ccc(OC(F)(F)F)cc2)n2c1nc1cc(Cl)c(Cl)cc12	–	–	–
200 nM	N#Cc1c(C(F)(F)F)cc(Nc2ccccc2OC(F)(F)F)n2c1nc1ccccc12	–	–	–
